Reference: PubChem BioAssay (NCI)
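At the GI50, growth is halved. TGI marks complete inhibition of growth.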

Assays:
Test in all cases: DTP human tumour cell line panel, 384-well format
HT29 colon = test system: HT29 colon
EKVX NSCLC = test system: EKVX NSCLC
BT-549 breast = test system: BT-549 breast
A549 NSCLC = test system: A549 NSCLC
HCT-15 colon = test system: HCT-15 colon
NCI-H460 NSCLC = test system: NCI-H460 NSCLC
HCT-116 colon = test system: HCT-116 colon
M14 melanoma = test system: M14 melanoma
NCI-H226 lung = test system: NCI-H226 lung
MDA-MB-435 melanoma = test system: MDA-MB-435 melanoma
OVCAR-8 ovarian = test system: OVCAR-8 ovarian
MOLT-4 leukemia = test system: MOLT-4 leukemia
PC-3 prostate = test system: PC-3 prostate

C=CC(=O)Nc1cc(C)ccc1Nc1nc(Nc2cc(OC)ncc2C)ncc1C(F)(F)F was tested, and the GI50 (HT29 colon) was 340 nM, the TGI (HT29 colon) was 1520 nM and the GI50 (EKVX NSCLC) was 300 nM. It also gave a TGI (EKVX NSCLC) of 1620 nM, a GI50 (BT-549 breast) of 300 nM and a TGI (BT-549 breast) of 1020 nM. It also gave a GI50 (A549 NSCLC) of 569 nM, a TGI (A549 NSCLC) of 2050 nM and a GI50 (HCT-15 colon) of 857 nM. It also gave a TGI (HCT-15 colon) of 9300 nM, a GI50 (NCI-H460 NSCLC) of 698 nM and a TGI (NCI-H460 NSCLC) of 2720 nM. It also gave a GI50 (HCT-116 colon) of 206 nM, a TGI (HCT-116 colon) of 562 nM and a GI50 (M14 melanoma) of 35.5 nM. For the same compound, the TGI (M14 melanoma) was 194 nM, the GI50 (NCI-H226 lung) was 228 nM and the TGI (NCI-H226 lung) was 1810 nM. For the same compound, the GI50 (MDA-MB-435 melanoma) was 253 nM, the TGI (MDA-MB-435 melanoma) was 1510 nM and the GI50 (OVCAR-8 ovarian) was 1120 nM. For the same compound, the TGI (OVCAR-8 ovarian) was 4190 nM, the GI50 (MOLT-4 leukemia) was 879 nM and the TGI (MOLT-4 leukemia) was 2150 nM. It also gave a GI50 (PC-3 prostate) of 1970 nM and a TGI (PC-3 prostate) of 99700 nM.
